ChEMBL document CHEMBL1131633, “Design, synthesis, and biological activities of new thieno[3,2-d] pyrimidines as selective type 4 phosphodiesterase inhibitors” (J Med Chem, 1998)

Key:
[1] = target: Phosphodiesterase 4 (Cavia porcellus); experiment: Inhibitory activity against phosphodiesterase 4 isolated from guinea pig ventricular tissue
[2] = target: Phosphodiesterase 3 (Cavia porcellus); experiment: Inhibitory activity against cGMP inhibited Phosphodiesterase 3, isolated from guinea pig ventricular tissue
[3] = target: Phosphodiesterase 4 (Rattus norvegicus) (UniProt P14270+P14646+P14644+P54748); experiment: Displacement of [3H]rolipram from Phosphodiesterase 4 in rat brain membranes at 10 uM; assay type: cell membranes
[4] = target: Phosphodiesterase 4 (Cavia porcellus); experiment: Increased cAMP accumulation in isoprenaline-induced guinea pig eosinophils

Row | Structure (SMILES) | IC50 [1] [µM] | IC50 [2] [µM] | inhibition [3] [%] | EC50 [4] [µM]
1 | CCCCc1nc(N(CCC)Cc2ccccc2)c2sccc2n1 | 2.5 | > 200 | 37 | –
2 | CCc1nc(NCc2ccccc2)c2sccc2n1 | 2.3 | 30 | 41 | –
3 | c1ccc(CNc2nc(N3CCCCC3)nc3ccsc23)cc1 | 65 | > 200 | – | 21
4 | CCCCc1nc(NCc2ccncc2)c2sccc2n1 | 0.6 | 29 | – | –
5 | CCCCc1nc(NCc2ccc(-c3ccccc3)cc2)c2sccc2n1 | > 200 | 200 | – | –
6 | c1ccc(CNc2ncnc3ccsc23)cc1 | 14 | 68 | – | 18
7 | CCCCc1nc(NCc2ccccc2)c2nccnc2n1 | 6.7 | 45 | – | –
8 | CCCCc1nc(NCc2ccc([N+](=O)[O-])cc2)c2sccc2n1 | 6.3 | 8.5 | – | –
9 | CCCCc1nc(NC(=O)c2ccccc2)c2sccc2n1 | 23 | > 200 | – | –

Other lines, results leading:

Row | IC50 [1] [µM] | IC50 [2] [µM] | inhibition [3] [%] | EC50 [4] [µM] | Structure (SMILES)
10 | 1 | > 200 | – | – | CCCc1nc2cccnc2n(Cc2ccccc2)c1=O
11 | 29 | > 200 | – | – | c1ccc(CNc2[nH]c(Cc3ccccc3)nc3ncnc2-3)cc1
12 | 16 | > 200 | – | – | CCCCc1nc2ccccc2c(=O)n1Cc1ccccc1
13 | 5 | 43 | – | – | CCCCc1nc2ccsc2c(=O)n1Cc1ccccc1
14 | 0.9 | > 200 | – | – | CCCc1nc2ccccc2n(Cc2ccccc2)c1=O
15 | 4 | > 200 | 37 | – | CCCCc1nc(N(Cc2ccccc2)Cc2ccccc2)c2sccc2n1
16 | 1.5 | 5 | – | – | c1ccc(CNc2nc(Cc3ccccc3)nc3ccsc23)cc1
17 | 10 | > 200 | – | – | CCCCc1nc2ncccc2c(=O)n1Cc1ccccc1
18 | 3 | > 200 | 8 | – | c1ccc(CNc2nc(-c3ccccc3)nc3ccsc23)cc1
